Test [1] addresses Human Cbl-b (residues 40-426) (Homo sapiens (Human), UniProt Q13191). Briefly: Cbl-b SPR assay. It is filed as binding. The conditions noted are these: for Fold of selectivity: C-cbl SPR Kd vs Cbl-b SPR Kd; for Kd: SPR, 20° C. The essentials:
(§1)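 Where a chaser compound was used, % compound bound was calculated as (1−(RUT/RUT0))*100 relative to a prior chaser injection and fitted to a single exponential for kd. The single cycle titration (max 500 nM) was then fitted with kd held fixed.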
(In general: Surface plasmon resonance follows binding to a sensor surface in real time, without labels.)

The target in test [2] is c-Cbl (Homo sapiens (Human), UniProt P22681). Briefly: C-Cbl LCK Ub TR-FRET assay (C-cbl Lck HTRF). It is filed as biochemical. The essentials: (§2)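 After the ubiquitination reaction, detection mixture was added and plates incubated 20 min at room temperature before reading. IC50 values were calculated with wells lacking LCK as the low control and DMSO as the high control.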
Sequence of c-Cbl (P22681 47-435): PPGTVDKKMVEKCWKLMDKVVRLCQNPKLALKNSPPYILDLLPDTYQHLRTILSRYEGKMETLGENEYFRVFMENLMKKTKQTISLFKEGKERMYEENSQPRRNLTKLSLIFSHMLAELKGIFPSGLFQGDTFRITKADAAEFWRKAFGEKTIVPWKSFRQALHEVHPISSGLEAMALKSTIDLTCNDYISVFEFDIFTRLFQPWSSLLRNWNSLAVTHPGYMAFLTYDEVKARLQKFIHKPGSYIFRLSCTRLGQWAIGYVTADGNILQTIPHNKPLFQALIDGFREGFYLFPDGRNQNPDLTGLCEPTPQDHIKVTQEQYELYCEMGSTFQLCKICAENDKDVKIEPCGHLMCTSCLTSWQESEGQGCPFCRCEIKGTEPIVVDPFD
On the technique in general: Time-resolved FRET reads energy transfer from a long-lived donor to a nearby acceptor.

Test [3] concerns the target c-Cbl (residues 47-435) (Homo sapiens (Human), UniProt P22681). Kind of test: c-Cbl SPR assay. It is filed as binding. Conditions: 20° C. A digest of the protocol:
as §1

The target of test [4] is Cbl-b (Homo sapiens (Human), UniProt Q13191). Briefly: Cbl-b LCK Ub TR-FRET assay (Cbl-b Lck HTRF). Format: biochemical. Conditions: for IC50: Cbl-b LCK Ub TR-FRET, Example 121; for (fold-selectivity) Cbl-b and C-Cbl Selectivity: ratio C-cbl Lck HTRF IC50 / Cbl-b Lck HTRF IC50. The essentials: as §2
Sequence of Cbl-b (Q13191 40-426): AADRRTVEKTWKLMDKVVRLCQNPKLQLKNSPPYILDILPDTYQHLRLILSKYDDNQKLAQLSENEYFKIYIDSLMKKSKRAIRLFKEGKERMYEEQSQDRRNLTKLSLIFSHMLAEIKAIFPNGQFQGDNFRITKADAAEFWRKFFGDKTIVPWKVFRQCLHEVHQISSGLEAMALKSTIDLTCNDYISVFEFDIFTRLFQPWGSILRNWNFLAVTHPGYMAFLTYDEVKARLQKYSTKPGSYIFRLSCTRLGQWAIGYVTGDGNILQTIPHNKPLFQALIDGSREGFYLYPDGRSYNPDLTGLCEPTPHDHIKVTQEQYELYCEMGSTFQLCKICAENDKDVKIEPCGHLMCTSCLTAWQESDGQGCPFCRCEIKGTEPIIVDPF

The source of these data is patent publication US12187709B2 (Genentech, Inc., priority 2021, dated 2025).

What is called Kd is a measure of binding affinity in units of concentration. A low value points to tighter binding. What is called IC50 is the concentration at which inhibition is half-maximal. A high value points to weaker potency.

Sequence of Human Cbl-b (residues 40-426) (Q13191 40-426): as above
Sequence of c-Cbl (residues 47-435) (P22681 47-435): as the sequence (P22681 47-435) above

In test [1], `Cn1cnnc1[C@]1(c2cccc(N3Cc4c(Cl)cc(CNC5(C)CCC5)cc4C3=O)c2)C[C@H](Cl)C1` [Compound 452, 4-chloro-2-(3-((1s,3s)-3-chloro-1-(4-methyl-4H-1,2,4-triazol-3-yl)cyclobutyl)phenyl)-6-(((1-methylcyclobutyl)amino)methyl)isoindolin-1-one] gave a Fold of selectivity of 3.3× and a Kd of 0.7 nM. Moreover, the IC50 in test [2] turned out to be 5.6 nM. Besides, in test [3], binding was characterised by a dissociation constant (Kd) of 2.4 nM. Besides, in test [4], the IC50 came out at 5.5 nM; the “(fold-selectivity) Cbl-b and C-Cbl Selectivity” value is given as 1.0x.
With `Cn1cnnc1C1(c2cccc(N3Cc4c(cc(C(CF)NC5(C)CCC5)cc4C(F)(F)F)C3=O)c2)CCC1` (stereo not drawn) [Compound 453, 6-(2-fluoro-1-((1-methylcyclobutyl)amino)ethyl)-2-(3-(1-(4-methyl-4H-1,2,4-triazol-3-yl)cyclobutyl)phenyl)-4-(trifluoromethyl)isoindolin-1-one], in test [1], the Fold of selectivity was 2.8× and the equilibrium dissociation constant (Kd) was 1.7 nM. This molecule also returned an IC50 in test [2] of 11 nM. Also, in test [3], the Kd turned out to be 4.8 nM. In test [4], the IC50 was 6.6 nM; the “(fold-selectivity) Cbl-b and C-Cbl Selectivity” value was 1.7x.
The molecule `CC[C@H]1C[C@@](c2cccc(N3Cc4c(cc(CNC5(C)CCC5)cc4C(F)(F)F)C3=O)c2)(c2nncn2C)C1` [Compound 454, 2-(3-((1r,3s)-3-ethyl-1-(4-methyl-4H-1,2,4-triazol-3-yl)cyclobutyl)phenyl)-6-(((1-methylcyclobutyl)amino)methyl)-4-(trifluoromethyl)isoindolin-1-one] had a Fold of selectivity in test [1] of 11×. In addition, the Kd in test [1] worked out at 0.85 nM; in test [3] it was 9.2 nM. The IC50 was 16 nM in test [2] and 6.5 nM in test [4]. In addition, the “(fold-selectivity) Cbl-b and C-Cbl Selectivity” value in test [4] is reported as 2.4x.
Take `CC[C@H]1C[C@](c2cccc(N3Cc4c(cc(CNC5(C)CCC5)cc4C(F)(F)F)C3=O)c2)(c2nncn2C)C1` [Compound 455, 2-(3-((1s,3r)-3-ethyl-1-(4-methyl-4H-1,2,4-triazol-3-yl)cyclobutyl)phenyl)-6-(((1-methylcyclobutyl)amino)methyl)-4-(trifluoromethyl)isoindolin-1-one]: in test [1], the Fold of selectivity amounted to 11×. In addition, the dissociation constant (Kd) in test [1] turned out to be 1.4 nM; in test [3], 15 nM. Besides, the concentration for half-maximal inhibition (IC50) is 20 nM in test [2] and 8.7 nM in test [4]. In addition, the “(fold-selectivity) Cbl-b and C-Cbl Selectivity” value in test [4] is on record as 2.3x.
Turning to `Cn1cnnc1[C@H](c1cccc(N2Cc3c(cc(CNC4(C)CCC4)cc3C(F)F)C2=O)c1)C1CC(F)C1` (stereo partly drawn) [Compound 461, 4-(difluoromethyl)-2-(3-((S)-((1s,3R)-3-fluorocyclobutyl)(4-methyl-4H-1,2,4-triazol-3-yl)methyl)phenyl)-6-(((1-methylcyclobutyl)amino)methyl)isoindolin-1-one], in test [1], the Fold of selectivity is recorded as 18× and the Kd amounted to 190 nM. In addition, the IC50 in test [2] came to 3200 nM. The molecule also yielded a Kd in test [3] of 3400 nM. Moreover, in test [4], the IC50 stood at 360 nM; the “(fold-selectivity) Cbl-b and C-Cbl Selectivity” value amounted to 8.8 x.
In test [1], `Cn1cnnc1C(c1cccc(N2Cc3c(cc(CNC4(C)CCC4)cc3C(F)(F)F)C2=O)c1)C1(F)CSC1` (stereo not drawn) [Compound 462, 2-(3-((3-fluorothietan-3-yl)(4-methyl-4H-1,2,4-triazol-3-yl)methyl)phenyl)-6-(((1-methylcyclobutyl)amino)methyl)-4-(trifluoromethyl)isoindolin-1-one] had a Fold of selectivity of 10× and a Kd of 2 nM. Further, the IC50 in test [2] amounted to 24 nM. This molecule also had a Kd in test [3] of 21 nM. Further, in test [4], the IC50 was 13 nM; the “(fold-selectivity) Cbl-b and C-Cbl Selectivity” value is given as 1.9x.
For the molecule `Cn1cnnc1[C@@H](c1cccc(N2Cc3c(cc(CNCC(C)(C)F)cc3C(F)(F)F)C2=O)c1)C1COC1` [Compound 463, (R)-6-(((2-fluoro-2-methylpropyl)amino)methyl)-2-(3-((4-methyl-4H-1,2,4-triazol-3-yl)(oxetan-3-yl)methyl)phenyl)-4-(trifluoromethyl)isoindolin-1-one], in test [1], the Fold of selectivity turned out to be 5.2× and binding was put at a Kd of 3.2 nM. The same molecule displayed an IC50 in test [2] of 12 nM. This molecule also registered a Kd in test [3] of 17 nM. In test [4], the IC50 amounted to 6.5 nM; the “(fold-selectivity) Cbl-b and C-Cbl Selectivity” value was found to be 1.9x.
As for `CO[C@H]1C[C@](c2cccc(N3Cc4c(cc(CN[C@H](C)C5CCC5)cc4C(F)(F)F)C3=O)c2)(c2nncn2C)C1` [Compound 467], in test [1], the Fold of selectivity was found to be 7.6× and the affinity, expressed as Kd, was 16 nM. Also, the half-maximal inhibitory concentration (IC50) in test [2] stood at 86 nM. Further, the Kd in test [3] was found to be 120 nM. In test [4], half-maximal inhibition (IC50) was put at 22 nM; the “(fold-selectivity) Cbl-b and C-Cbl Selectivity” value amounted to 4.0x.
For `CO[C@H]1C[C@](c2cccc(N3Cc4c(cc(CN[C@@H](C)C5CCC5)cc4C(F)(F)F)C3=O)c2)(c2nncn2C)C1` [Compound 470, 6-((((S)-1-cyclobutylethyl)amino)methyl)-2-(3-((1r,3S)-3-methoxy-1-(4-methyl-4H-1,2,4-triazol-3-yl)cyclobutyl)phenyl)-4-(trifluoromethyl)isoindolin-1-one], in test [1], the Fold of selectivity was found to be 2.9× and binding was put at a Kd of 0.35 nM. For the same molecule, the IC50 in test [2] worked out at 4.5 nM. For the same molecule, in test [3], the dissociation constant (Kd) came to 1.5 nM. In addition, in test [4], the IC50 is 4.4 nM; the “(fold-selectivity) Cbl-b and C-Cbl Selectivity” value was determined as 1.0x.
Molecule `CO[C@H]1C[C@](c2cccc(N3Cc4c(cc(CNC5(C)CC(F)(F)C5)cc4C(F)(F)F)C3=O)c2)(c2nncn2C)C1` [Compound 471, 6-(((3,3-difluoro-1-methylcyclobutyl)amino)methyl)-2-(3-((1r,3r)-3-methoxy-1-(4-methyl-4H-1,2,4-triazol-3-yl)cyclobutyl)phenyl)-4-(trifluoromethyl)isoindolin-1-one] registered a Fold of selectivity in test [1] of 11×. In addition, the figures for the Kd in test [1] and in test [3] were 8.3 nM and 91 nM, respectively. For the same molecule, the IC50 in test [2] was 36 nM; in test [4], 8.3 nM. Further, in test [4], the “(fold-selectivity) Cbl-b and C-Cbl Selectivity” value worked out at 4.3x.
In test [1], `CO[C@H]1C[C@](c2cccc(N3Cc4c(cc(CNCC5(O)CC5)cc4C(F)(F)F)C3=O)c2)(c2nncn2C)C1` [Compound 473, 6-((((1-hydroxycyclopropyl)methyl)amino)methyl)-2-(3-((1r,3r)-3-methoxy-1-(4-methyl-4H-1,2,4-triazol-3-yl)cyclobutyl)phenyl)-4-(trifluoromethyl)isoindolin-1-one] gave a Fold of selectivity of 11× and a dissociation constant (Kd) of 7.6 nM. Moreover, in test [2], the IC50 was 50 nM. For the same molecule, the Kd in test [3] was 85 nM. In test [4], the IC50 amounted to 14 nM; the “(fold-selectivity) Cbl-b and C-Cbl Selectivity” value was found to be 3.6x.
`CO[C@H]1C[C@](c2cccc(N3Cc4c(cc(CNCC5(C)CC5)cc4C(F)(F)F)C3=O)c2)(c2nncn2C)C1` [Compound 474, 2-(3-((1r,3r)-3-methoxy-1-(4-methyl-4H-1,2,4-triazol-3-yl)cyclobutyl)phenyl)-6-((((1-methylcyclopropyl)methyl)amino)methyl)-4-(trifluoromethyl)isoindolin-1-one]: in test [1], the Fold of selectivity was determined as 14× and the Kd turned out to be 4.8 nM. Moreover, in test [2], the IC50 turned out to be 51 nM. Moreover, in test [3], the Kd was 68 nM. Also, in test [4], the IC50 was found to be 11 nM; the “(fold-selectivity) Cbl-b and C-Cbl Selectivity” value is 4.8x.
On to `CO[C@H]1C[C@](c2cccc(N3Cc4c(cc(CNC5(C)CC5)cc4C(F)(F)F)C3=O)c2)(c2nncn2C)C1` [Compound 475, 2-(3-((1r,3r)-3-methoxy-1-(4-methyl-4H-1,2,4-triazol-3-yl)cyclobutyl)phenyl)-6-(((1-methylcyclopropyl)amino)methyl)-4-(trifluoromethyl)isoindolin-1-one], for which, in test [1], the Fold of selectivity is listed as 13×. Moreover, the Kd was determined as 3.6 nM in test [1] and 45 nM in test [3]. Besides, the 50% inhibitory concentration (IC50) in test [2] was determined as 23 nM; in test [4], 8.7 nM. Further, the “(fold-selectivity) Cbl-b and C-Cbl Selectivity” value in test [4] was 3.3x.
For `CO[C@H]1C[C@](c2cccc(N3Cc4c(cc(CNC5COC5)cc4C(F)(F)F)C3=O)c2)(c2nncn2C)C1` [Compound 476, 2-(3-((1r,3r)-3-methoxy-1-(4-methyl-4H-1,2,4-triazol-3-yl)cyclobutyl)phenyl)-6-((oxetan-3-ylamino)methyl)-4-(trifluoromethyl)isoindolin-1-one], in test [1], the Fold of selectivity came out at 11× and the Kd stood at 95 nM. In addition, the IC50 in test [2] was determined as 570 nM. In test [3], this molecule displayed a Kd of 1100 nM. In addition, in test [4], the midpoint of inhibition, the IC50, lay at 82 nM; the “(fold-selectivity) Cbl-b and C-Cbl Selectivity” value is 7.1x.
For `CO[C@H]1C[C@](c2cccc(N3Cc4c(cc(CNC5CC5)cc4C(F)(F)F)C3=O)c2)(c2nncn2C)C1` [Compound 477, 6-((cyclopropylamino)methyl)-2-(3-((1r,3r)-3-methoxy-1-(4-methyl-4H-1,2,4-triazol-3-yl)cyclobutyl)phenyl)-4-(trifluoromethyl)isoindolin-1-one], in test [1], the Fold of selectivity worked out at 11× and the Kd was found to be 11 nM. In addition, in test [2], half-maximal inhibition (IC50) required 93 nM. For the same molecule, binding in test [3] was put at a Kd of 130 nM. In test [4], 17 nM corresponded to half-maximal inhibition (IC50); the “(fold-selectivity) Cbl-b and C-Cbl Selectivity” value worked out at 5.6x.
